What was measured:
[1] = tested on: GBM2 (human glioblastoma); assay: viability assay (Table 2); assay type: cell-based
Procedure: (§1) For viability assays cells were seeded in 96 well plates (MCF7 and 4T1: 6000, HL60: 120.000 cells/well) and incubated overnight. Compounds were dissolved in dimethyl sulfoxide (DMSO). Cells were treated with an increasing concentration of compounds having the general formula (I.) (156 nM-100 μM). Cell viability was determined after 72h incubation. Resazurin reagent (Sigma-Aldrich) was dissolved in PBS (pH 7.4) at 0.15 mg/ml concentration, sterile filtered (0.22 μm, Merck Millipore) and aliquoted at −20° C. Resazurin reagent (Sigma-Aldrich) was added at a final concentration of 25 μg/ml. After 2 hours incubation at 37° C. 5% CO2 fluorescence (530 nm excitation/580 nm emission) was recorded on a multimode microplate reader (Cytofluor4000, PerSeptive Biosytems). Viability was calculated with relation to untreated control cells and blank wells containing media without cells. IC50 values (50% inhibiting concentration) were calculated by GraphPad Prism® 5 (La Jolla, Calif., USA).
(§2) GBM2 (human glioblastoma), HeLa (human cervical carcinoma), MIA PaCa-2 (human pancreas carcinoma) and U87MG (human glioblastoma) cells were maintained in Dulbecco's Modified Eagle Medium (DMEM) 10% fetal calf serum (FCS, Gibco). A375 (human melanoma), A549 (human lung adenocarcinoma) and HEP3B (human hepatoma) cells were maintained in Dulbecco's Modified Eagle Medium/Nutrient Mixture F-12 (DMEM/F12) 10% FCS.
(§3) Media were supplemented with 2 mM GlutaMAX, and 100 U/mL penicillin, 100 μg/mL streptomycin (Life Technologies, Carlsbad, Calif., USA). Cell cultures were maintained at 37° C. in a humidified incubator in an atmosphere of 5% CO2 (Sanyo, Japan).
(§4) Viability assays were performed as described in Example 102.

[2] = tested on: A549 (human lung adenocarcinoma); assay: viability assay (Table 2); assay type: cell-based
Procedure: as §1, §2, §3, §4

[3] = tested on: MIA PaCa-2 (human pancreas carcinoma); assay: viability assay (Table 2); assay type: cell-based
Procedure: as §1, §2, §3, §4

[4] = tested on: pAkt (Ser473) in HL-60 cells; assay: flow cytometry of pAkt bright cells (FIG. 2B); assay type: cell-based, human; settings: HL-60, 40 nM, 200 nM and 1 μM
Procedure: Human promyelocytic leukemia HL60 Cells (500,000/well) were plated in 24-well tissue culture plates (Corning Life Sciences) in RPMI 10% FCS (Gibco) and were treated with the compounds described in Example 60 and 83 at 40 nM, 200 nM and 1 μM concentrations in 500 μl media. After 24 h incubation time cells with the corresponding supernatants were harvested and centrifuged down (2000 rpm, 5 min).
Pellets were resuspended and fixed in 3.5% PBS buffered formaldehyde (Molar Chemicals) for 10 minutes. Cells were washed with FACS-buffer (2% FCS, (Gibco) in PBS), centrifuged down (2000 rpm, 5 min). Cells were permeabilized in Permeability buffer (1% FCS, 0.1% saponin (Sigma-Aldrich) in PBS pH 7.4) for 5 minutes. Cells were washed with FACS buffer (2% FCS, (Gibco) in PBS), centrifuged (2000 rpm, 5 min). The following primary antibodies were used: Bcl-xl-Alexa 488, (Cell Signaling, cat. numb. 2767S), dilution 1:75, 24 h; pAkt-Alexa Fluor 488, (Ser473), (Cell Signaling, cat. numb, 4071), dilution 1:50, 24 or 72h; After incubation for 1h at 4° C. samples were washed two times with FACS buffer. […] In order to calculate the signal to noise ratio mean fluorescent intensity (MFI) was calculated by the following equation: =POWER(10; (Medianstained−Median unstained, untreated)/Chd), where Chd means 256, the number of channels per decade (Fajka-Boja et al. 2002; Sharrow 2001) in Microsoft Excel. […]

[5] = tested on: HT168 (human melanoma); assay: viability assay (Table 2); assay type: cell-based
Procedure: as §1
(§5) HT168 (human melanoma), HT199 (human melanoma), HT29 (human colorectal adenocarcinoma), MOLT4 (human leukemia) and U937 (human lymphoma) cells were maintained in Roswell Park Memorial Institute 1640 medium (RPMI-1640) 10% FCS. SKOV-3 cells were maintained in Dulbecco's Modified Eagle Medium/McCoy's medium (DMEM/McCoy) 10% FCS.
as §3, §4

[6] = tested on: HT199 (human melanoma); assay: viability assay (Table 2); assay type: cell-based
Procedure: as §1, §5, §3, §4

[7] = tested on: HT29 (human colorectal adenocarcinoma); assay: viability assay (Table 2); assay type: cell-based; settings: HT-29
Procedure: as §1, §5, §3, §4

[8] = tested on: HL-60 cells; assay: Annexin V / propidium iodide apoptosis assay (FIG. 4); assay type: cell-based, human; settings: HL-60, 40 nM, 200 nM and 1 μM, 24 h
Procedure: Cells (200,000/well) were plated in 24-well tissue culture plates (Corning Life Sciences) and treated with the compounds described in Example 60 and 83 at 40 nM, 200 nM and 1 μM concentrations in 500 μl media. After 24 h cells were harvested with the corresponding supernatant and centrifuged down (2000 rpm, 5 min). Pellets were resuspended in Annexin V binding buffer (0.01 M HEPES, 0.14 M NaCl and 2.5 mM CaCl2). Annexin V-Alexa Fluor® 488 (Life Technologies, 2.5:100) was added to the cells, which were then kept for 15 min in the dark at room temperature. Before the acquisition propidium iodide (10 μg/ml, Sigma-Aldrich) was added in Annexin V binding buffer to dilute Annexin V-Alexa Fluor® 488 5×. Cells (20.000 events) were analyzed on a FACSCalibur flow cytometer using CellQuest software (Becton Dickinson). The percentage of the FL1 (530/30 nm filter, Annexin V-Alexa Fluor® 488) positive and FL3 (670 nm filter, propidium iodide) negative early apoptotic cells and FL1 positive and FL3 positive late apoptotic cells were determined. The total apoptotic population included both early and late apoptotic cells. Column charts were created by GraphPad Prism® 5. Results are depicted in FIG. 4. […] We could detect AnnexinV^+/PI^− early and AnnexinV^+/PI^+ late apoptotic cell populations after 24 h of treatment.

| SMILES | IC50 [1] [nM] | IC50 [2] [nM] | IC50 [3] [nM] | percentage of the pAkt bright cells [4] | IC50 [5] [nM] | IC50 [6] [nM] | IC50 [7] [nM] | AnnexinV+/PI- early and AnnexinV+/PI+ late apoptotic cell populations [8] |
| --- | --- | --- | --- | --- | --- | --- | --- | --- |
| CC(C)(C)Nc1c(C(C)(C)C)[nH]c2c(C(=O)Nc3ccc(N)cc3)cnn12 [Example 83, N-(4-Aminophenyl)-2-(tert-butyl)-3-(tert-butylamino)-1H-imidazo[1,2-b]pyrazole-7-carboxamide] | 100 | 300 | 300 | increase | 100 | 100 | 50 | accompanied by apoptosis |
| CC(C)(C)Nc1c(C(C)(C)C)[nH]c2c(C(=O)Nc3ccc(F)cc3)cnn12 [Example 60, 2-(Tert-butyl)-N-(4-fluorophenyl)-3-((tert-butyl-2-yl)amino)-1H-imidazo[1,2-b]pyrazole-7-carboxamide] | 250 | 750 | 300 | increase | 500 | 300 | 250 | accompanied by apoptosis |

Source: US20220064167A1, “IMIDAZO-PYRAZOLE CARBOXAMIDE DERIVATIVES AS ANTICANCER AGENTS AND THE SYNTHESIS THEREOF” (AVIDIN KFT., priority 2018, published 2022)
